Several values for one entry are separate records, joined by “and”; a condition that tells them apart may be missing. Equal values may be shown once.
Conditions: for surface tension liquid-gas: Ring tensiometer; for viscosity / mass density: 101.33 kPa, Liquid; for viscosity: Capillary tube (Ostwald / Ubbelohde) method; for mass density: Vibrating tube method

CCC(=O)CC [pentan-3-one]
Conditions	mass density	surface tension liquid-gas [mN/m]	viscosity [mPa·s]
283.15 K	824.27 kg/m3	26.5	0.515
285.15 K	822.28 kg/m3	26.3	0.507
287.15 K	820.3 kg/m3	26.1	0.499
289.15 K	818.31 kg/m3	26	0.492
291.15 K	816.33 kg/m3	25.8	0.484
292.15 K	–	–	0.48
293.15 K	814.34 kg/m3	25.6	0.476
295.15 K	812.36 kg/m3	25.4	0.468
297.15 K	810.37 kg/m3	25.2	0.46
298.15 K	809.25 kg/m3 and 810.86 kg/m3	–	0.458
299.15 K	808.39 kg/m3	25	0.453
301.15 K	806.4 kg/m3	24.8	0.445
303.15 K	804.42 kg/m3	24.6	0.437
305.15 K	802.43 kg/m3	24.4	0.429
307.15 K	800.45 kg/m3	24.2	0.421
309.15 K	798.46 kg/m3	24	0.414
311.15 K	796.48 kg/m3	23.8	0.406
313.15 K	794.49 kg/m3	23.6	0.398
315.15 K	792.51 kg/m3	23.4	0.39
317.15 K	790.52 kg/m3	23.3	0.382
319.15 K	788.54 kg/m3	23.1	0.375
321.15 K	786.55 kg/m3	22.9	0.367
323.15 K	784.57 kg/m3	22.7	0.359
325.15 K	782.59 kg/m3	22.5	0.351
327.15 K	780.6 kg/m3	22.3	0.343
329.15 K	778.62 kg/m3	22.1	0.336
